Experimental data published in patent US20240189287A1, “PERIPHERALLY RESTRICTED CB1 RECEPTOR BLOCKERS AND USES THEREOF” (BIONANOSIM (BNS) LTD, priority 2021, published 2024).
Like-named read-outs stand apart in the source and are kept apart here.

Tests used:
[1] = biological target: T1, CB1 receptor (Mus musculus (Mouse), UniProt P47746); assay: CB1 receptor radioligand binding assay, [3H]CP-55,940 displacement, mouse brain membranes; details: mouse (m) CB1 receptor; read-out: CB1R Ki (nM) (m)
Procedure: (§1) Radioligand binding assays: Binding affinity was determined by a radioligand binding assay. The different BB8-conjugates binding to CB1 and CB2 receptors was assessed in competition displacement assays using [^3H]CP-55.940 as the radioligand and crude membranes from mouse brain for CB1 receptor and human kidney cells for CB2 receptor.
(§2) CB1 receptor binding assay: Mouse brain membranes were used as the source material for CB1 receptors. The displacement of specifically bound tritiated CP-55.940 from these membranes using a standard filtration assay was used to determine the Ki values for the test compounds. Briefly. 20 μg of protein was incubated for 1 h at 30° C. in the presence of 0.5 nM [^3H]CP-55,940 and various concentrations (10^−5M-10^−11M) of test compound/control, final volume of 1 mL. The incubation was terminated by rapid filtration and washing, and the amount of specifically bound [^3H]CP-55,940 was determined. Briefly, membranes with bound [^3H]CP-55,940 were separated and washed from free ligand by vacuum filtration, adsorbing the membrane onto a Whatman glass microfiber filter paper ([…], Cat #1821271). Finally, the Whatman filter paper with adsorbed membranes was cut and placed in scintillation liquid (Ultima Gold) for 1 h at 25° C. followed by a β counter reading of bound [^3H]CP-55,940 radioligand. All data were in triplicates with Ki values determined using GraphPad Prism 7.02 analysis software. […] In some cases, membranes from human source were used to determine CB1 receptor binding affinity.

[2] = biological target: CB1 receptor (Homo sapiens (Human), UniProt P21554); assay: CB1 receptor radioligand binding assay, membranes from human source; details: human (h) CB1 receptor; read-out: CB1R Ki (nM) (h)
Chain of CB1 receptor (Homo sapiens (Human), UniProt P21554) (P21554 whole entry): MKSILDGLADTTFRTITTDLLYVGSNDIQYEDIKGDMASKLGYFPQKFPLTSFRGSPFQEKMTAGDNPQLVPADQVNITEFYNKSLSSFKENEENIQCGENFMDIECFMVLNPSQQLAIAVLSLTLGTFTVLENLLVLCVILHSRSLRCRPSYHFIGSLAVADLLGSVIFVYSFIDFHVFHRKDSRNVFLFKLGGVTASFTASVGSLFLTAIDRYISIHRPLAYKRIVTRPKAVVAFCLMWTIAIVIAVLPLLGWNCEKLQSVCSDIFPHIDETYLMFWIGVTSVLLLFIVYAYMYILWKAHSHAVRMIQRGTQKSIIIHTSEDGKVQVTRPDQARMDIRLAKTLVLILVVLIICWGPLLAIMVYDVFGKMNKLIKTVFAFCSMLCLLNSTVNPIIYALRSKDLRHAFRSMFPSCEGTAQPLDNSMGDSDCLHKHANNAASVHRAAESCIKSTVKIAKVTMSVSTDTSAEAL
Procedure: as §1, §2

[3] = Tissue distribution: brain, plasma and liver levels after oral dosing; assay type: in vivo, C57BL/6J mice; details: male, C57BL/6J, mouse, in vivo, po, 10 mg/kg
Procedure: Tissue distribution and pharmacokinetics: Tissue levels of antagonist: 3 male C57BL/6J mice (7-9 weeks, PO group) were used in this study. Mice were fasted prior to administration of test article and had access to food 4 hours post dosing. Appropriate amount of test article was accurately weighted and mixed with the appropriate volume of vehicle to get a clear oral solution. The formulation was prepared on the day of dosing, and mice were dosed via oral gavage up to 4 hr after formulation was prepared. After 1 hour, mice were scarified and about 200 μL blood was collected from cardiac puncture followed by plasma preparation. Brain and liver were removed and further processed. Dose formulation and sample analysis was performed by LC-MS/MS method.
The peripherality of selected BB8 conjugates (BNS) was evaluated in vivo measuring their respective brain, plasma, and liver levels 1 hr following 10 mg/kg oral administration.

[4] = biological target: CB2 receptor (Homo sapiens (Human), UniProt P34972); assay: CB2 receptor radioligand binding assay, [3H]CP-55,940 displacement, human kidney membranes; details: read-out: hCB2R Ki
Chain of CB2 receptor (P34972 whole entry): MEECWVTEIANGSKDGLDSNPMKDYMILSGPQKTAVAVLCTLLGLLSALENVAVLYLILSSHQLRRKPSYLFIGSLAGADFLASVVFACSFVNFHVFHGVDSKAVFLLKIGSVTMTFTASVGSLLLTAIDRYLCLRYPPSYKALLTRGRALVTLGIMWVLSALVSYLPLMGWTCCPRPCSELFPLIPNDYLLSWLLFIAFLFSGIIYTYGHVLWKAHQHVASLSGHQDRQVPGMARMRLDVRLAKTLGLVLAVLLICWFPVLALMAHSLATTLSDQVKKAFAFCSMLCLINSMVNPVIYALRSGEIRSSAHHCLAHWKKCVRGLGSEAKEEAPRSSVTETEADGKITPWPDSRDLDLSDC
Procedure: as §1
CB2 receptor binding assay: Human kidney membranes were used as the source material for CB2 receptors. The displacement of specifically bound tritiated CP-55,940 from these membranes using a standard filtration assay was used to determine the Ki values for the test compounds. Briefly, 1.25 μg of protein was incubated for 1.5 h at 30° C. in the presence of 0.5 nM [^3H]CP-55,940 and various concentrations (10^−5M-10^−11M) of test compound/control, final volume of 1 mL. The incubation was terminated by rapid filtration and washing, and the amount of specifically bound [^3H]CP-55,940 was determined. Briefly, membranes with bound [^3H]CP-55,940 were separated and washed from free ligand by vacuum filtration, adsorbing the membrane onto a Whatman glass microfiber filter paper ([…], Cat #1821271). Finally, the Whatman filter paper with adsorbed membranes was cut and placed in scintillation liquid (Ultima Gold) for 1 h at 25° C. followed by a β counter reading of bound [^3H]CP-55,940 radioligand. All data were in triplicates with Ki values determined using GraphPad Prism 7.02 analysis software.

[5] = system: P-gp (MDR1, ABCB1); assay: MDR1-MDCK II cell permeation assay (bi-directional permeability, P-gp efflux); assay type: in vitro ADME; details: dog; for Papp at 2.5 h, 2 μM: A to B
Procedure: (§3) Test and reference compounds were diluted with transport buffer (HBSS with 10 mM Hepes, pH 7.4) from stock solution to a concentration of 2 μM (DMSO<1%) and applied to the apical or basolateral side of the cell monolayer. Permeation of the test compounds from A to B direction or B to A direction was determined in duplicate with/without P-gp inhibitor (GF120918, 10 μM). […] The plate was incubated for 2.5 hours in CO2 incubator at 37±1° C., with 5% CO2 at saturated humidity without shaking. In addition, the efflux ratio of each compound was also determined. Test and reference compounds were quantified by LC-MS/MS analysis based on the peak area ratio of analyte/IS.
(§4) The in vitro bi-directional permeability across MDR1-MDCKII cells including P-glycoprotein (Pgp, ABCB1) efflux in the presence and absence of a P-gp inhibitor is an indicator as to the tendency of an orally administered compound to penetrate the brain.

[6] = system: MDR1-MDCKII cells; assay: as above; assay type: in vitro ADME
Procedure: as §3, §4

[7] = biological target: T1, CB1 receptor; assay: [35S]GTPγS binding assay for CB1 receptor, mouse brain membranes; assay type: biochemical; details: nature of binding: agonist/antagonist/inverse agonist
Procedure: For CB1 receptor-mouse brains were dissected and P2 membranes prepared and resuspended at ˜2 μg protein/μL in 1 ml assay buffer (50 mM Tris HCl, 9 mM MgCl2, 0.2 mM EDTA, 150 mM NaCl; pH 7.4). Ligand-stimulated [^35S]GTPγS binding was assayed as described previously (Tam et al., JCI 2010). Briefly, membranes (10 μg protein) were incubated in assay buffer containing 100 μM GDP, 0.05 nM [^35S]GTPγS, test compounds at various concentrations (CP55940/Rimonabant as controls and test compounds for BB8 conjugates), and 1.4 mg/mL fatty acid-free BSA in siliconized glass tubes. Membranes with bound ligand ([^35S]GTPγS) were separated from free ligand by vacuum filtration and were analyzed using β counter as described above. Non-specific binding was determined using 10 μM GTPS (cold GTP). Basal binding was assayed in the absence of the tested compound and in the presence of GDP.

[8] = system: HepG2 Cells; assay: Cell Viability Assay in HepG2 Cells at 72 h; assay type: cell-based, human; details: Homo sapiens, HepG2, 72 h; read-out: Relative IC50
Procedure: The liver plays a central role in transforming and clearing chemicals, and therefore is susceptible to toxicity of these agents. BNS808, BNS822 and other selected compounds were tested in the HepG2 assay using […] to evaluate cytotoxicity.

[9] = biological target: CYP 2D6 (Homo sapiens (Human), UniProt P10635); assay: CYP inhibition in human liver microsomes; assay type: in vitro ADME; details: CYP isozyme 2D6, standard inhibitor
Chain of CYP 2D6 (P10635 whole entry): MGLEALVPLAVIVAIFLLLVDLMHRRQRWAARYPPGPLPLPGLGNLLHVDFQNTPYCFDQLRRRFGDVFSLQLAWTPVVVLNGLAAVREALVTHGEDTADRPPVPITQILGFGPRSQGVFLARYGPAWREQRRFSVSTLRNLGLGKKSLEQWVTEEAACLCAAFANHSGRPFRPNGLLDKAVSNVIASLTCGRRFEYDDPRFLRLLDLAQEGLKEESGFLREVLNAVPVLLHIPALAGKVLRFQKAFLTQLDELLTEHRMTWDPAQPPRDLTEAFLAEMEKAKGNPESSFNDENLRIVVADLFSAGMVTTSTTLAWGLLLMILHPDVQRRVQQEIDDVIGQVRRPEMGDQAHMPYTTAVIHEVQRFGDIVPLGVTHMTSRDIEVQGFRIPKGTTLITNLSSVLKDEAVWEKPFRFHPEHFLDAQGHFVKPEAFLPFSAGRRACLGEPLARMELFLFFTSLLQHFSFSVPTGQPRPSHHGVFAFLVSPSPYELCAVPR
Procedure: To evaluate the in vitro CYP inhibition of BNS808 and BNS822, the compounds were tested in human liver microsomes that are rich in drug metabolizing enzymes, including CYPs 1A2, 2C9, 2C19, 2D6, 3A4.

[10] = MDCK-MDR1, pH 7.4, with GF120918, 10 μM, efflux ratio in the presence of P-gp inhibitor GF120918, read-out: MDR1 B:A/A:B (+P-gp inhibitor)
[11] = MDCK-MDR1, pH 7.4, efflux ratio, without P-gp inhibitor, read-out: MDR1 B:A/A:B

T1 sequence (P47746 whole entry): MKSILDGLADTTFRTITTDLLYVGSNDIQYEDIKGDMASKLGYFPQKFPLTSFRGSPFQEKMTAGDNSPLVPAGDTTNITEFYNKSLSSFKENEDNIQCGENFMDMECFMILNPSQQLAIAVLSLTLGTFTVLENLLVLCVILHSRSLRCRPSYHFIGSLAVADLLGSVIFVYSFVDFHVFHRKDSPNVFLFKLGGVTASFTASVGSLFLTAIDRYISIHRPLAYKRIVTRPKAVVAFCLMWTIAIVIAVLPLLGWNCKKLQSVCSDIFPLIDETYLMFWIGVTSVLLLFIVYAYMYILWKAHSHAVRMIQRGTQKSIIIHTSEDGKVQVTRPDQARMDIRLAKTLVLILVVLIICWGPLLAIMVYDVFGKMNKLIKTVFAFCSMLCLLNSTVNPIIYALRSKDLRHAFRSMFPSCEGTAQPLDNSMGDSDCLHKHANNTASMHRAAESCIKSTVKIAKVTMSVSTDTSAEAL

Row | SMILES | Ki [1] [nM] | Ki [2] [nM] | Kp at 1 h [3] | Ki [4] [µM] | efflux ratio at 2.5 h, 2 μM [5, 10] | Papp at 2.5 h, 2 μM ([5]; MDCK-MDR1, pH 7.4) [×10⁻⁶ cm/s] | efflux ratio at 2.5 h, 2 μM [5, 11] | P-gp substrate [6] | Rank Papp [6] | mCB1R GTPγ[^35S] (activity) [7] | IC50 [8] [µM] | % Inhibition [9] [%]
1 | O=C(NC1CCCOc2c1nn(-c1ccccc1Cl)c2-c1ccc(Cl)cc1)c1nc[nH]n1 (stereo not drawn) [BNS801, N-[2-(2-chlorophenyl)-3-(4-chlorophenyl)-5,6,7,8-tetrahydrooxepino[3,2-c]pyrazol-8-yl]-1H-1,2,4-triazole-3-carboxamide] | 805 | 232 |  |  |  |  |  |  |  |  |  | 
2 | O=C(NC1CCCOc2c1nn(-c1ccccc1Cl)c2-c1ccc(Cl)cc1)c1cccnc1 (stereo not drawn) [BNS803, N-[2-(2-chlorophenyl)-3-(4-chlorophenyl)-5,6,7,8-tetrahydrooxepino[3,2-c]pyrazol-8-yl]pyridine-3-carboxamide] | 22.4 | 6.48 | 1.6 | > 9.11 | 0.63 | 13.2 | 0.77 | No | High | Inverse agonist |  | 
3 | CC(C)(Oc1ccc(Cl)cc1)C(=O)NC1CCCOc2c1nn(-c1ccccc1Cl)c2-c1ccc(Cl)cc1 (stereo not drawn) [BNS804, 2-(4-chlorophenoxy)-N-[2-(2-chlorophenyl)-3-(4-chlorophenyl)-5,6,7,8-tetrahydrooxepino[3,2-c]pyrazol-8-yl]-2-methyl-propanamide] | 1.16 | 1.96 |  | 5.7 |  |  |  |  |  | Antagonist |  | 
4 | O=C(NC1CCCOc2c1nn(-c1ccccc1Cl)c2-c1ccc(Cl)cc1)c1cnccn1 (stereo not drawn) [BNS805, N-[2-(2-chlorophenyl)-3-(4-chlorophenyl)-5,6,7,8-tetrahydrooxepino[3,2-c]pyrazol-8-yl]pyrazine-2-carboxamide] | 77.8 | 8.75 |  | 8.34 | 0.55 | 4.93 | 0.82 | Partial | Moderate | Inverse agonist |  | 
5 | O=C(NC1CCCOc2c1nn(-c1ccccc1Cl)c2-c1ccc(Cl)cc1)c1ncc[nH]1 (stereo not drawn) [BNS806, N-[2-(2-chlorophenyl)-3-(4-chlorophenyl)-5,6,7,8-tetrahydrooxepino[3,2-c]pyrazol-8-yl]-1H-imidazole-2-carboxamide] | 165 | 23.7 |  | > 9.11 |  |  |  |  |  | Antagonist; In. Agonist >[c] |  | 
6 | Cc1ccc(S(=O)(=O)NC2CCCOc3c2nn(-c2ccccc2Cl)c3-c2ccc(Cl)cc2)cc1 (stereo not drawn) [BNS807, N-[2-(2-chlorophenyl)-3-(4-chlorophenyl)-5,6,7,8-tetrahydrooxepino[3,2-c]pyrazol-8-yl]-4-methyl-benzenesulfonamide] | 10 | 1.4 |  | 1.65 |  |  |  |  |  | Inverse agonist | 17.9 | 
7 | CS(=O)(=O)NC1CCCOc2c1nn(-c1ccccc1Cl)c2-c1ccc(Cl)cc1 (stereo not drawn) [BNS809, N-[2-(2-chlorophenyl)-3-(4-chlorophenyl)-5,6,7,8-tetrahydrooxepino[3,2-c]pyrazol-8-yl]methanesulfonamide] | 33.8 | 7.7 |  | > 9.11 |  |  |  |  |  | Antagonist |  | 
8 | C=C[C@H]1C[N@@]2CC[C@H]1C[C@@H]2[C@@H](O)c1ccnc2ccc(OC)cc12 [Quinidine, reference compound] |  |  |  |  |  |  |  |  |  |  |  | 96.2
